Measured values from patent US10919937B2, “Bicyclic peptide ligands and uses thereof” (BicycleTx Limited, priority 2018, dated 2021).
*1 amine or outer side, *2 acyl side, *3 side chain or, on linkers, in order; H or OH if unused. Where a SMILES comes first, the peptide text is derived from it. Bridges are numbered along the chain shown (N, C = ends). [ ]: non-standard residue; d: D form. X11 = O=C(C[*:1])N1CCN(c2ccc(-c3nc(-c4ccc(N5CCN(C(=O)C[*:2])CC5)cc4)nc(-c4ccc(N5CCN(C(=O)C[*:3])CC5)cc4)n3)cc2)CC1; X14 = CC(C)(C)[C@H](N[*:3])C(=O)C[C@@H](CSCc1ccc(-c2nc(-c3ccc(C[*:1])cc3)nc(-c3ccc(C[*:2])cc3)n2)cc1)C(N)=O; X10 = O=C(C[*:1])N1CCC(N2CCN(c3nc(N4CCN(C5CCN(C(=O)C[*:2])CC5)CC4)nc(N4CCN(C5CCN([*:3])CC5)CC4)n3)CC2)CC1; X12 = CC(C)(C)[C@H](N[*:3])C(=O)C[C@@H](CSCc1ccc(CN(Cc2ccc(C[*:1])cc2)Cc2ccc(C[*:2])cc2)cc1)C(N)=O; X6 = O=C(C[*:1])N1Cc2cccc(c2)CN(C(=O)C[*:2])Cc2cccc(c2)CN(C(=O)C[*:3])Cc2cccc(c2)C1; X3 = CC(C)(C)[C@H](N[*:1])C(=O)C[C@@H](CSCc1ccc(C(=O)[*:2])cc1)C(N)=O; X1 = c1cc(-c2nc(-c3ccc(C[*:2])cc3)nc(-c3ccc(C[*:3])cc3)n2)ccc1C[*:1]; X4 = O=C(c1ccc(C[*:1])cc1)N1CN(C(=O)c2ccc(C[*:2])cc2)CN([*:3])C1; X9 = CC(C)(C)[C@H](N[*:1])C(=O)C[C@@H](CSCC(=O)[*:2])C(N)=O; 1Nal = N[C@@H](Cc1cccc2ccccc12)C(=O)O; TBMB = c1c(C[*:1])cc(C[*:3])cc1C[*:2]; Tle = CC(C)(C)[C@H](N)C(=O)O

These molecules were tested against CAIX (Homo sapiens, UniProt Q16790) (assay: CAIX Competition Binding Assay (competition fluorescence polarization)). Settings: not given.
Protocol: CAIX Competition Binding Assay. Affinity of the peptides of the invention for human CAIX (Ki) is determined using a competition fluorescence polarization assay analogous to that described in Dubois et al. (2011) Radiotherapy and Oncology 99(3), 424-43 using A-(CAECWIDGWVPC)-A-Sar6-K(Fl), (SEQ ID NO: 11), as the fluorescent ligand.
Compounds described as “B” have a K, equal to or greater than 0.5 μM and less than 1 μM. Compounds described as “C” have a K, equal to or greater than 1 μM and less than 10 μM. Compounds described as “D” have a K, equal to or greater than 10 μM.
With `CC(=O)N[C@H]1CSCc2cc3cc(c2)CSC[C@@H](C(N)=O)NC(=O)[C@@H]2CCCN2C(=O)[C@H](C(C)C)NC(=O)[C@H](Cc2c[nH]c4ccccc24)NC(=O)CNC(=O)[C@H](CC(=O)O)NC(=O)[C@H](C(C)C)NC(=O)[C@H](Cc2c[nH]c4ccccc24)NC(=O)[C@H](Cc2ccc(cc2)OC3)NC(=O)[C@H](CCC(=O)O)NC(=O)[C@H]([C@@H](C)O)NC1=O` [I-108] (Ac-CTEYWVDGWVPC-NH2; linker 1-4-12 via TBMB) the Ki was < 500 nM.

Same assay, conditions: human CAIX, competition FP, n = 2; read-out: Ki
With `CC(C)[C@@H]1NC(=O)[C@H](Cc2c[nH]c3ccccc23)NC(=O)[C@@H]2CSCC(=O)N3Cc4cccc(c4)CN(Cc4cccc(c4)CN(Cc4cccc(c4)C3)C(=O)CSC[C@H](NC(=O)[C@H](C)NC(=O)CN(C)C(=O)CN(C)C(=O)CN(C)C(=O)CN(C)C(=O)CN(C)C(=O)CN(C)C(=O)CN(C)C(=O)CN(C)C(=O)CN(C)C(=O)CN(C)C(=O)CCN)C(=O)N[C@@H]([C@@H](C)O)C(=O)N[C@@H](CCC(=O)O)C(=O)N2)C(=O)CSC[C@@H](C(N)=O)NC(=O)[C@@H]2CCCN2C(=O)[C@H](C(C)C)NC(=O)[C@H](Cc2c[nH]c3ccccc23)NC(=O)CNC(=O)[C@H](CC(=O)O)NC1=O` [I-23] the Ki was > 10000 nM.
`CC(=O)N[C@H]1CSCc2ccc(cc2)-c2nc3nc(n2)-c2ccc(cc2)CSC[C@H](NC(=O)[C@H](CCC(=O)O)NC(=O)[C@H]([C@@H](C)O)NC1=O)C(=O)N[C@@H](Cc1c[nH]c2ccccc12)C(=O)N[C@@H](C(C)C)C(=O)N[C@@H](CC(=O)O)C(=O)NCC(=O)N[C@@H](Cc1c[nH]c2ccccc12)C(=O)N[C@@H](C(C)C)C(=O)N1CCC[C@H]1C(=O)N[C@H](C(N)=O)CSCc1ccc-3cc1` [I-98] (Ac-CTECWVDGWVPC-NH2; linker 1-4-12 via X1) was tested, and the Ki was < 500 nM.
With `CC(=O)N[C@H]1Cc2ccc(cc2)OCc2cc3cc(c2)CSC[C@H](NC(=O)[C@H](CCC(=O)O)NC(=O)[C@H]([C@@H](C)O)NC1=O)C(=O)N[C@@H](Cc1c[nH]c2ccccc12)C(=O)N[C@@H](C(C)C)C(=O)N[C@@H](CC(=O)O)C(=O)NCC(=O)N[C@@H](Cc1c[nH]c2ccccc12)C(=O)N[C@@H](C(C)C)C(=O)N1CCC[C@H]1C(=O)N[C@H](C(N)=O)Cc1ccc(cc1)OC3` [I-109] (Ac-YTECWVDGWVPY-NH2; linker 1-4-12 via TBMB) the Ki was 500 to 1000 nM.

What follows are molecules tested against MT1-MMP hemopexin domain (Homo sapiens, UniProt P50281) (assay: MT1-MMP Direct Binding Fluorescence Polarization (Anisotropy) Assay). Settings: MT1-MMP direct binding FP, n=2.
Protocol: Direct Binding Fluorescence Polarization or Anisotropy Assays are performed by titrating a constant concentration of fluorescent tracer (here, the fluoresceinated bicyclic peptide to be studied) with its binding partner (here, the MT1-MMP hemopexin domain). As the concentration of binding partner increases during the titration, the polarization signal changes in proportion to the fraction of bound and unbound material. This allows determination of […] (Kd) quantitatively. Assay data can be fit using standard ligand binding equations.
Typically, concentrations of the tracer are ideally well below the Kd of the tracer:titrant pair, and concentrations chosen are usually at ˜1 nM or less. The titrant (binding partner) concentration is varied from 0.1 nM up to typically 5 μM. The range is chosen such that the maximum change in fluorescent polarization can be observed. Buffers employed are phosphate buffered saline in the presence of 0.01% Tween. Experiments were run in black 384 well low-bind/low volume plates (Corning 3820), and the fluorescent polarization signal was measured using a BMG Pherastar FS plate reader. Fluorescent tracers referred to in the text are bicyclic peptides that have been fluoresceinated using 5,6-carboxyfluorescein. Fluoresceination may be performed on the N-terminal amino group of the peptide, which is separated from the bicycle core sequence by a sarcosine spacer (usually Sar5). This can be done during Fmoc solid phase synthesis or post-synthetically (after cyclization with the molecular scaffold reagent and purification) if the N-terminal amino group is unique to the peptide. Fluoresceination can also be performed on the C-terminus, usually on a Lysine introduced as the first C-terminal residue, which is then separated from the bicycle core sequence by a sarcosine spacer (usually Sar6). Thus, N-terminal tracers can have a molecular format described as Fluo-Gly-Sar5-A(BicycleCoreSequence), and (BicycleCoreSequence)-A-Sar6-K(Fluo) for a C-terminally fluoresceinated construct.
`C[C@H](N)C(=O)N[C@H]1CSCC(=O)N2Cc3cccc(c3)CN3Cc4cccc(c4)CN(Cc4cccc(c4)C2)C(=O)CSC[C@H](NC(=O)[C@@H](C)NC(=O)[C@H](Cc2cccc4ccccc24)NC(=O)[C@H](CCC(=O)O)NC(=O)[C@H](CC(N)=O)NC(=O)[C@@H](C)NC1=O)C(=O)N[C@@H](CCC(=O)O)C(=O)N[C@@H](CC(=O)O)C(=O)N[C@@H](Cc1ccccc1)C(=O)N[C@@H](Cc1ccc(O)cc1)C(=O)N[C@@H](CC(=O)O)C(=O)N[C@@H](C(C)(C)C)C(=O)N[C@H](C(N)=O)CSCC3=O` [I-44] (H-AC[dA]NE[1Nal][dA]CEDFYD[Tle]C-NH2; linker 2-8-15 via X6) was tested, and the Ki was ≥ 10000 nM.
For `C[C@H](N)C(=O)N[C@H]1CSCc2ccc(cc2)-c2nc3nc(n2)-c2ccc(cc2)CSC[C@H](NC(=O)[C@@H](C)NC(=O)[C@H](Cc2cccc4ccccc24)NC(=O)[C@H](CCC(=O)O)NC(=O)[C@H](CC(N)=O)NC(=O)[C@@H](C)NC1=O)C(=O)N[C@@H](CCC(=O)O)C(=O)N[C@@H](CC(=O)O)C(=O)N[C@@H](Cc1ccccc1)C(=O)N[C@@H](Cc1ccc(O)cc1)C(=O)N[C@@H](CC(=O)O)C(=O)N[C@@H](C(C)(C)C)C(=O)C[C@H](C(N)=O)CSCc1ccc-3cc1` [I-90] (H-AC[dA]NE[1Nal][dA]CEDFYD; linker 2-8-C via X14), the Ki was < 500 nM.
In the case of `C[C@H](N)C(=O)N[C@H]1CSCC(=O)N2CCC(CC2)N2CCN(CC2)c2nc3nc(n2)N2CCN(CC2)C2CCN(CC2)C(=O)CSC[C@H](NC(=O)[C@@H](C)NC(=O)[C@H](Cc2cccc4ccccc24)NC(=O)[C@H](CCC(=O)O)NC(=O)[C@H](CC(N)=O)NC(=O)[C@@H](C)NC1=O)C(=O)N[C@@H](CCC(=O)O)C(=O)N[C@@H](CC(=O)O)C(=O)N[C@@H](Cc1ccccc1)C(=O)N[C@@H](Cc1ccc(O)cc1)C(=O)N[C@@H](CC(=O)O)C(=O)N[C@@H](C(C)(C)C)C(=O)C[C@H](C(N)=O)CSCC(=O)N1CCC(CC1)N1CCN3CC1` [I-91] (H-AC[dA]NE[1Nal][dA]CEDFYD[X9]; linker 2-8-C via X10), the Ki is reported as < 500 nM.
For `C[C@H](N)C(=O)N[C@H]1CSCc2ccc(cc2)C(=O)N2CN3CN(C2)C(=O)c2ccc(cc2)CSC[C@H](NC(=O)[C@@H](C)NC(=O)[C@H](Cc2cccc4ccccc24)NC(=O)[C@H](CCC(=O)O)NC(=O)[C@H](CC(N)=O)NC(=O)[C@@H](C)NC1=O)C(=O)N[C@@H](CCC(=O)O)C(=O)N[C@@H](CC(=O)O)C(=O)N[C@@H](Cc1ccccc1)C(=O)N[C@@H](Cc1ccc(O)cc1)C(=O)N[C@@H](CC(=O)O)C(=O)N[C@@H](C(C)(C)C)C(=O)C[C@H](C(N)=O)CSCc1ccc(cc1)C3=O` [I-93] (H-AC[dA]NE[1Nal][dA]CEDFYD[X3]; linker 2-8-C via X4), the Ki was < 500 nM.
With `C[C@H](N)C(=O)N[C@H]1CSCC(=O)N2CCN(CC2)c2ccc(cc2)-c2nc3nc(n2)-c2ccc(cc2)N2CCN(CC2)C(=O)CSC[C@H](NC(=O)[C@@H](C)NC(=O)[C@H](Cc2cccc4ccccc24)NC(=O)[C@H](CCC(=O)O)NC(=O)[C@H](CC(N)=O)NC(=O)[C@@H](C)NC1=O)C(=O)N[C@@H](CCC(=O)O)C(=O)N[C@@H](CC(=O)O)C(=O)N[C@@H](Cc1ccccc1)C(=O)N[C@@H](Cc1ccc(O)cc1)C(=O)N[C@@H](CC(=O)O)C(=O)N[C@@H](C(C)(C)C)C(=O)N[C@H](C(N)=O)CSCC(=O)N1CCN(CC1)c1ccc-3cc1` [I-94] (H-AC[dA]NE[1Nal][dA]CEDFYD[Tle]C-NH2; linker 2-8-15 via X11) the Ki was < 500 nM.
In the case of `C[C@H](N)C(=O)N[C@H]1CSCc2ccc(cc2)CN2Cc3ccc(cc3)CSC[C@@H](C(N)=O)CC(=O)[C@H](C(C)(C)C)NC(=O)[C@H](CC(=O)O)NC(=O)[C@H](Cc3ccc(O)cc3)NC(=O)[C@H](Cc3ccccc3)NC(=O)[C@H](CC(=O)O)NC(=O)[C@H](CCC(=O)O)NC(=O)[C@H](CSCc3ccc(cc3)C2)NC(=O)[C@@H](C)NC(=O)[C@H](Cc2cccc3ccccc23)NC(=O)[C@H](CCC(=O)O)NC(=O)[C@H](CC(N)=O)NC(=O)[C@@H](C)NC1=O` [I-96] (H-AC[dA]NE[1Nal][dA]CEDFYD; linker 2-8-C via X12), the Ki is reported as < 500 nM.
